# Data as given in US9951035B2, “Selective matrix metalloproteinase inhibitors” (University of Notre Dame du Lac, priority 2014, dated 2018).
# Values joined by “and” are separate entries in the source; they are usually repeats but may differ in a detail not shown here. Equal values may be shown once. Where a name gives a salt, the structure may show the parent alone.
# Columns and labels:
# MMP-14 = MMP-14 (Homo sapiens (Human), UniProt P50281); assay: Enzyme inhibition studies, MMP-14 catalytic domain; type: biochemical
# MMP-1 = MMP-1 (Homo sapiens (Human), UniProt P03956); assay: Enzyme inhibition studies, MMP-1 catalytic domain; type: biochemical
# MMP-1, sequence (P03956 98-276): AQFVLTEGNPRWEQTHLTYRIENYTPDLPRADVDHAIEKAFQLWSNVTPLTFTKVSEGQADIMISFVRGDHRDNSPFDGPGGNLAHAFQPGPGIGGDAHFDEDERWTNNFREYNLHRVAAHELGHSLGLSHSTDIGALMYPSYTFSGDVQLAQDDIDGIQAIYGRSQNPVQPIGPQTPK
# MMP-3 = MMP-3 (Homo sapiens (Human), UniProt P08254); assay: Enzyme inhibition studies, MMP-3 catalytic domain; type: biochemical
# MMP-3, sequence (P08254 100-272): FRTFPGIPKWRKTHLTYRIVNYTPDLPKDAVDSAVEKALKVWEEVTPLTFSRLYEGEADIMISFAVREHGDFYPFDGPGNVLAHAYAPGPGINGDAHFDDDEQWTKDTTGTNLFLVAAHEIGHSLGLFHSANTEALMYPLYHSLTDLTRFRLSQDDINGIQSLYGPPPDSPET
# MMP-7 = MMP-7 (Homo sapiens (Human), UniProt P09237); assay: Enzyme inhibition studies, MMP-7; type: biochemical
# MMP-7, sequence (P09237 95-267): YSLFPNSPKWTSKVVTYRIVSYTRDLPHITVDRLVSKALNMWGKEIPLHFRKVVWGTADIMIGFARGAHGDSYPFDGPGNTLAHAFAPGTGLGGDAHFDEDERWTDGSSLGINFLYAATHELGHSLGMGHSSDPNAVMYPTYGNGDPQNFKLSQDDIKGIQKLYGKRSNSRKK
# ADAM9 = ADAM9 (Homo sapiens (Human), UniProt Q13443); assay: Enzyme inhibition studies, ADAM9; type: biochemical; details: at 100 μM
# ADAM9, sequence (Q13443 206-697): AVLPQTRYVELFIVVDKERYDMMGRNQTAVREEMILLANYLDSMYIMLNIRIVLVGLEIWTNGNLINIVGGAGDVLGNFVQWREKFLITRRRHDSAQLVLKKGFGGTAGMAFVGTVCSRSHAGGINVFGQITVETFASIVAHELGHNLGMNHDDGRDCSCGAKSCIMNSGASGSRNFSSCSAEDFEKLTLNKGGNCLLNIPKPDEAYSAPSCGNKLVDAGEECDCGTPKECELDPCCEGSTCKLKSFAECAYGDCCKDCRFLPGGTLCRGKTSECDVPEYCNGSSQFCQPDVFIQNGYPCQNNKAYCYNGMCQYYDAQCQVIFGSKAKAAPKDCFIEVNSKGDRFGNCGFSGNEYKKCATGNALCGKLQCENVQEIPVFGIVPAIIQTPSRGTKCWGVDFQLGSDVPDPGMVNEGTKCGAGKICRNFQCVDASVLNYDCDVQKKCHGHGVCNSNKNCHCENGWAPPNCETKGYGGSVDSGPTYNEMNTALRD
# ADAM10 = ADAM10 (Homo sapiens (Human), UniProt O14672); assay: Enzyme inhibition studies, ADAM10; type: biochemical; details: at 100 μM
# ADAM10, sequence (O14672 214-672): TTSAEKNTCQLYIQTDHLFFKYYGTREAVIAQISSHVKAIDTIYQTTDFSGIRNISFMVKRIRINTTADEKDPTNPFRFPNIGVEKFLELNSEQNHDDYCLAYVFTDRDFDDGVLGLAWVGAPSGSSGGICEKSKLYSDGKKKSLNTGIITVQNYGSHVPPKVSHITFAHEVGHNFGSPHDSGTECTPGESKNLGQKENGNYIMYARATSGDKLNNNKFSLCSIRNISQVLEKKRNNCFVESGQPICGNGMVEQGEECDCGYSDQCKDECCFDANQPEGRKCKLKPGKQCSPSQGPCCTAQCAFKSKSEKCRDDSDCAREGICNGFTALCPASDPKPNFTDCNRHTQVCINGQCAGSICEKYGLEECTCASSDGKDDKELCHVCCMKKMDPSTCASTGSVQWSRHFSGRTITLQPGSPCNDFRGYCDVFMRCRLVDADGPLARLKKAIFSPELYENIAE
# [1] = Stability in buffers of the kinetic assays; type: physicochemical; details: in words
# Excerpt: Human recombinant active MMP-2 and MMP-7, and the catalytic domains of MMP-3 and MMP-14/MT1-MMP were purchased from EMD Chemicals, Inc. (San Diego, Calif., USA); human recombinant catalytic domains of MMP-1, MMP-8, and MMP-9 were purchased from Enzo Life Sciences, Inc. (Farmingdale, N.Y., USA); human recombinant active ADAM9 and ADAM10 were purchased from R&D Systems (Minneapolis, Minn., USA). Fluorogenic substrates MOCAc-Pro-Leu-Gly-Leu-A2pr(Dnp)-Ala-Arg-NH2 (for MMP-2, MMP-7, MMP-9 and MMP-14) and MOCAc-Arg-Pro-Lys-Pro-Val-Glu-Nva-Trp-Arg-Lys(Dnp)-NH2 (for MMP-3) were purchased from Peptides International (Louisville, Ky., USA); Mca-KPLGL-Dpa-AR-NH2 (for MMP-1, MMP-8 and ADAM10) and Mca-PLAQAV-Dpa-RSSSR-NH2 (for ADAM9) were purchased from R&D Systems (Minneapolis, Minn., USA). […] Inhibitor stock solutions (10 mM) were prepared fresh in DMSO before enzyme inhibition assays. We followed the same methodology for enzyme inhibition studies as reported by Page-McCaw et al. (Nat. Rev. Mol. Cell Biol. 2007, 8, 221-233). Enzyme inhibition studies were carried out using a Cary Eclipse fluorescence spectrophotometer (Varian, Walnut Creek, Calif., USA). Compounds 4, 5, 6 and 7 were stable in the buffers that were used in the kinetic assays.
# [2] = Pharmacokinetics and brain distribution after single iv dose
# Description: Mice (male CD-1, 6-7 weeks old, ˜30 g body weight, specific pathogen free) were purchased from Charles River Laboratories, Inc. (Wilmington, Mass., USA).
# Samples were analyzed by ultraperformance liquid chromatography (UPLC)/(+)electrospray ionization (ESI)-multiple-reaction monitoring (MRM) with a reversed phase C18 column (Acclaim® RSLC 120 C18, 2.2 μm, 120 Å, 2.1×100 mm, Dionex, Sunnyvale, Calif., USA).
# Quantification of the compounds in plasma and brain was obtained using peak-area ratios of the compounds to the internal standard, and the linear-regression parameters obtained from the calibration curves.
# [3] = Water solubility (filtrate of saturated aqueous solution, UPLC-MRM)
# MMP-9 [4] = molecular target: T1, MMP-9 (Homo sapiens (Human), UniProt P14780); assay: Enzyme inhibition studies, MMP-9 catalytic domain; type: biochemical; details: read-out: MMP-9 Ki
# T1 sequence (P14780 107-444): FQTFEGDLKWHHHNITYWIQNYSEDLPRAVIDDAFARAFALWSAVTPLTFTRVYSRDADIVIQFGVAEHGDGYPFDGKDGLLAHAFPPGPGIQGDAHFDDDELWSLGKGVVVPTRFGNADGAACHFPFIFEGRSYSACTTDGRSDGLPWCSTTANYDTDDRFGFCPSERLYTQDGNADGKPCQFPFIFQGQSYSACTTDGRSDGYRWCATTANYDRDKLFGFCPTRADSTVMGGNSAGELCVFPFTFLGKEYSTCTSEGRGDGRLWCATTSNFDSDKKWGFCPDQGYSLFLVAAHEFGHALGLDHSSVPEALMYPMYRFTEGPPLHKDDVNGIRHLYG
# MMP-2 = MMP-2 (Homo sapiens (Human), UniProt P08253); details: literature / previously reported; cited from earlier work
# MMP-2, sequence (P08253 110-660): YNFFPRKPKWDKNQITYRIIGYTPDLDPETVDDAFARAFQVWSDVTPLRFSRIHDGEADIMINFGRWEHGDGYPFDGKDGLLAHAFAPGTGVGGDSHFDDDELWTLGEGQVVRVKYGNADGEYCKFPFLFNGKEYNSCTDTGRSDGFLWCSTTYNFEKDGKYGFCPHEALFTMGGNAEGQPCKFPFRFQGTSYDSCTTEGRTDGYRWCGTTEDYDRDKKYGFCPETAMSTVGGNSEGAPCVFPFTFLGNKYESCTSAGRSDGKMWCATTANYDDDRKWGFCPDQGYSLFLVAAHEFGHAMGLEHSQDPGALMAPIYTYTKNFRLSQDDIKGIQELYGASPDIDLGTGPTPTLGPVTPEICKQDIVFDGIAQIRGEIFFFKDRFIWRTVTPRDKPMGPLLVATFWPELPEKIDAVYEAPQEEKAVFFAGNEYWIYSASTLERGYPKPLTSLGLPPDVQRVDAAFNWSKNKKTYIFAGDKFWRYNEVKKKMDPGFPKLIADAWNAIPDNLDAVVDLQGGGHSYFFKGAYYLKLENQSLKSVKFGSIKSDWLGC
# MMP-9 [5] = molecular target: T1, MMP-9; details: literature / previously reported; cited from earlier work
# [6] = 2 min after 5 mg/kg single iv, mice, HCl salt
# [7] = male, CD-1, mouse, in vivo, 5 mg/kg
# [8] = male, CD-1, mouse, in vivo, iv, 5 mg/kg
# [9] = plasma, 5 mg/kg single iv, mice
molecule,measurement,setting,value
"N=C(N)Nc1ccc(Oc2ccc(S(=O)(=O)CC3CS3)cc2)cc1 (stereo not shown) [Compound 7, 1-(4-(4-((Thiiran-2-ylmethyl)sulfonyl)phenoxy)phenyl)guanidine HCl salt]",Ki,MMP-14,40 ± 2 nM
same,inhibition at 100 µM,MMP-1,4%
same,Ki,MMP-3,19000 ± 1000 nM
same,inhibition at 100 µM,MMP-7,4%
same,inhibition at 100 µM,ADAM9,14%
same,inhibition at 100 µM,ADAM10,25%
same,stability in the buffers used in the kinetic assays,[1],stable
same,time brain levels above Ki for MMP-2,"[2]; 5 mg/kg single iv, mice",120 min
same,time brain levels above Ki for MMP-9,"[2]; 5 mg/kg single iv, mice",30 min
same,time plasma levels above Ki for MMP-2,"[2]; 5 mg/kg single iv, mice",90 min
same,time plasma levels above Ki for MMP-9,"[2]; 5 mg/kg single iv, mice",60 min
same,Brain concentration,[2]; [6],0.577±0.560 pmol/mg tissue
same,Plasma concentration,[2]; [6],12600 ± 10900 nM
same,Brain concentration,"[2]; 5 min after 5 mg/kg single iv, mice",0.476 ± 0.470 pmol/mg tissue
same,Brain concentration,"[2]; 10 min after 5 mg/kg single iv, mice",0.216 ± 0.071 pmol/mg tissue
same,Brain concentration,"[2]; 30 min after 5 mg/kg single iv, mice",0.117 ± 0.024 pmol/mg tissue
same,Brain concentration,"[2]; 60 min after 5 mg/kg single iv, mice",0.0228 ± 0.0033 pmol/mg tissue
same,Brain concentration,"[2]; 90 min after 5 mg/kg single iv, mice",0.0409 ± 0.0155 pmol/mg tissue
same,Brain concentration,"[2]; 120 min after 5 mg/kg single iv, mice",0.0222 ± 0.0072 pmol/mg tissue
same,Brain concentration,"[2]; 240 min after 5 mg/kg single iv, mice",0.0161 ± 0.0035 pmol/mg tissue
same,AUC0-last,"[2]; brain, 5 mg/kg single iv, mice",14.3 pmol·min/mg
same,AUC0-∞,"[2]; brain, 5 mg/kg single iv, mice",17.4 pmol·min/mg
same,t1/2α,"[2]; brain, 5 mg/kg single iv, mice",47 min
same,t1/2β,"[2]; brain, 5 mg/kg single iv, mice",133 min
same,crossing of the blood-brain barrier,[2]; in words,cross the blood-brain barrier
same,concentration at 2 min,[2]; [7],12600 ± 10900 nM
same,concentration at 5 min,[2]; [7],4370 ± 2630 nM
same,concentration at 10 min,[2]; [7],3920 ± 780 nM
same,concentration at 30 min,[2]; [7],482 ± 229 nM
same,concentration at 60 min,[2]; [7],119 ± 51 nM
same,concentration at 90 min,[2]; [7],22 ± 8 nM
same,concentration at 120 min,[2]; [7],6.3 ± 4.9 nM
same,concentration at 240 min,[2]; [7],3.2 ± 2.66 nM
same,AUC(0-inf),[2]; [8],2.13 µM·h
same,AUC(0-t),[2]; [8],2.13 µM·h
same,Kp,[2]; [8],0.136
same,Vd,[2]; [8],1.08 L/kg
same,clearance,[2]; [8],107 mL/min/kg
same,CL,[2]; [9],107 mL/min/kg
same,t1/2α,[2]; [9],5.22 min
same,t1/2β,[2]; [9],64.2 min
same,Aq. solubility,[3],32 mg/mL
same,solubility,[3]; thermodynamic from solid,32 mg/mL
COC(=O)Nc1ccc(Oc2ccc(S(=O)(=O)CC3CS3)cc2)cc1 (stereo not shown) [ND-380],Ki,MMP-9 [4],180 ± 30 nM
"TIMP-1: tissue inhibitor of metalloproteinase 1, protein inhibitor of MMPs",residence time bound to MMP-2,MMP-2,7 min and 6.9 min
same,residence time bound to MMP-9,MMP-9 [5],8 min
